The test system of this assay is 855422-203-R-J1-PDC complex spheroid growth. Put plainly: Anticancer human tumor 855422-203-R-J1-PDC patient-derived bladder carcinoma cell line growth inhibition [AhR]. The note with it: for viability, T/C: stronger effect = lower value. The method, boiled down:
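Complex tumor spheroids co-cultured with HUVEC and human MSC stroma; AhR antagonists tested in combination with standard-of-care and investigational agents. Top concentration at or near clinical Cmax (else 10 microM), half-log dilutions; growth expressed as percent test/control.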

“And” between values parts separate entries of the source, which are not always exact repeats. Equal entries are not always repeated.
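Further: spheroids exposed to agents for seven days before readout.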
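Wherever viability, T/C is given: percent of DMSO vehicle control luminescence viability.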

For `CC1(C)CCC(CN2CCN(c3ccc(C(=O)NS(=O)(=O)c4ccc(NCC5CCOCC5)c([N+](=O)[O-])c4)c(Oc4cnc5[nH]ccc5c4)c3)CC2)=C(c2ccc(Cl)cc2)C1` + Cc1ccccc1N=Nc1ccc(NC(=O)c2ccnn2C)c(C)c1, the IC50 (curve of first compound, second compound 0.1 µM) amounted to 6.82 µM; the IC50 (curve of first compound, second compound 0.316 µM) was found to be 6.89 µM; the IC50 (curve of first compound, second compound 1 µM) turned out to be 7.01 µM; the IC50 (curve of first compound, second compound 3.16 µM) was determined as 6.66 µM; the IC50 (curve of first compound, second compound 10 µM) came out at 4.83 µM. Further, the viability, T/C reads like this: (second compound 0.1 µM, first compound 0.0316 µM) 102%; (second compound 0.1 µM, first compound 0.1 µM) 114%; (second compound 0.1 µM, first compound 0.316 µM) 101%; (second compound 0.1 µM, first compound 1 µM) 107%; (second compound 0.1 µM, first compound 3.16 µM) 110%; (second compound 0.1 µM, first compound 10 µM) 21.8%. In addition, the viability, T/C runs as follows: (second compound 0.316 µM, first compound 0.0316 µM) 105%; (second compound 0.316 µM, first compound 0.1 µM) 106%; (second compound 0.316 µM, first compound 0.316 µM) 102%; (second compound 0.316 µM, first compound 1 µM) 114%; (second compound 0.316 µM, first compound 3.16 µM) 106%; (second compound 0.316 µM, first compound 10 µM) 23.1%. The viability, T/C is, setting by setting: (second compound 1 µM, first compound 0.0316 µM) 108%; (second compound 1 µM, first compound 0.1 µM) 116%; (second compound 1 µM, first compound 0.316 µM) 102%; (second compound 1 µM, first compound 1 µM) 106%; (second compound 1 µM, first compound 3.16 µM) 116%; (second compound 1 µM, first compound 10 µM) 23.4%. Moreover, the viability, T/C by setting is: (second compound 3.16 µM, first compound 0.0316 µM) 95.8%; (second compound 3.16 µM, first compound 0.1 µM) 102%; (second compound 3.16 µM, first compound 0.316 µM) 105%; (second compound 3.16 µM, first compound 1 µM) 105%; (second compound 3.16 µM, first compound 3.16 µM) 98.2%; (second compound 3.16 µM, first compound 10 µM) 23.6%. In addition, the viability, T/C (second compound 10 µM, first compound 0.0316 µM) is 94.1%; the viability, T/C (second compound 10 µM, first compound 0.1 µM) was 83.5%; the viability, T/C (second compound 10 µM, first compound 0.316 µM) is 89%; the viability, T/C (second compound 10 µM, first compound 1 µM) is 85.6%; the viability, T/C (second compound 10 µM, first compound 3.16 µM) is 62.9%; the viability, T/C (second compound 10 µM, first compound 10 µM) is 27.7%.
With `CC(C)CC(NC(=O)C(Cc1ccccc1)NC(=O)c1cnccn1)B(O)O` (stereo unspecified), the viability, T/C reads like this: (compound 0.000949 µM) 110% and 101% and 118%; (compound 0.00949 µM) 0.21% and 0.27% and 0.11%; (compound 0.03 µM) 0.16% and 0.14% and 0.42%; (compound 0.0949 µM) 0.15% and 0.14% and 0.12%; (compound 0.3 µM) 0.19% (2×) and 0.21%. For the setting “curve of compound”, the IC50 is 0.00279 µM and 0.00576 µM and 0.00185 µM.

The values are drawn from PubChem BioAssay AID1919005 (Molecular Pharmacology Branch, DTP, NCI, 2023).
